Experiment: wn = mass fraction of the nth substance listed
Settings: Fluid (supercritical or subcritical phases), Other PVT measurement

O=C(OCCC(F)(F)C(F)(F)C(F)(F)C(F)(F)C(F)(F)C(F)(F)F)c1cccc(-c2cccc(C(=O)OCCC(F)(F)C(F)(F)C(F)(F)C(F)(F)C(F)(F)C(F)(F)F)c2)c1 + O=C=O
Settings | mass density [kg/m3]
294.55 K, 5980 kPa, w1 = 0.135 | 744
295.05 K, 6070 kPa, w1 = 0.116 | 768
295.15 K, 6170 kPa, w1 = 0.016 | 745
295.55 K, 6240 kPa, w1 = 0.279 | 976
295.95 K, 6280 kPa, w1 = 0.405 | 1054
296.45 K, 6310 kPa, w1 = 0.334 | 950
296.55 K, 6380 kPa, w1 = 0.206 | 904
298.35 K, 6620 kPa, w1 = 0.206 | 900
298.75 K, 6590 kPa, w1 = 0.116 | 782
299.15 K, 6730 kPa, w1 = 0.405 | 1049
299.75 K, 6610 kPa, w1 = 0.273 | 933
299.75 K, 6900 kPa, w1 = 0.135 | 737
299.95 K, 6860 kPa, w1 = 0.279 | 962
300.55 K, 6930 kPa, w1 = 0.334 | 967
301.15 K, 6900 kPa, w1 = 0.273 | 932
301.95 K, 7070 kPa, w1 = 0.279 | 954
302.75 K, 7520 kPa, w1 = 0.016 | 689
303.15 K, 7240 kPa, w1 = 0.334 | 957
303.35 K, 7310 kPa, w1 = 0.116 | 763
303.35 K, 7340 kPa, w1 = 0.135 | 723
303.35 K, 7550 kPa, w1 = 0.206 | 880
303.45 K, 7240 kPa, w1 = 0.273 | 887
304.75 K, 8270 kPa, w1 = 0.279 | 952
305.35 K, 7520 kPa, w1 = 0.273 | 827
305.85 K, 7660 kPa, w1 = 0.273 | 782
305.95 K, 7620 kPa, w1 = 0.016 | 654
312.75 K, 10240 kPa, w1 = 0.116 | 752
318.45 K, 12270 kPa, w1 = 0.135 | 711
320.65 K, 13200 kPa, w1 = 0.279 | 925
321.05 K, 12890 kPa, w1 = 0.334 | 931
321.05 K, 13270 kPa, w1 = 0.206 | 856
322.65 K, 11510 kPa, w1 = 0.016 | 622
327.85 K, 14660 kPa, w1 = 0.405 | 1001
330.05 K, 15000 kPa, w1 = 0.405 | 999
332.45 K, 15960 kPa, w1 = 0.135 | 688
338.55 K, 17380 kPa, w1 = 0.116 | 719
342.75 K, 18790 kPa, w1 = 0.206 | 816
344.35 K, 18760 kPa, w1 = 0.334 | 898
345.35 K, 18820 kPa, w1 = 0.405 | 969
346.15 K, 19720 kPa, w1 = 0.279 | 879
347.75 K, 16790 kPa, w1 = 0.016 | 585
348.55 K, 19620 kPa, w1 = 0.135 | 665
360.65 K, 22690 kPa, w1 = 0.405 | 949
362.85 K, 23000 kPa, w1 = 0.206 | 777
363.55 K, 22380 kPa, w1 = 0.116 | 673
363.65 K, 23000 kPa, w1 = 0.334 | 862
363.75 K, 19380 kPa, w1 = 0.016 | 554
368.05 K, 24130 kPa, w1 = 0.279 | 835
369.65 K, 24030 kPa, w1 = 0.135 | 639

Reference: the NIST ThermoML archive (doi:10.1016/j.fluid.2005.09.019)
